16 compounds from US5783434A, “Cathepsin and methods and compositions for inhibition thereof” (priority 1995, dated 1998) can be followed below.

“Also recorded” adds a separate entry of the source. Where a SMILES comes first, the peptide text is derived from it. [ ]: non-standard residue; d: D form. The star is where a group is joined. Cbz = O=C(OCc1ccccc1)*

Common to all, as to assay type: biochemical
In data set [1] the target is T1, Cathepsin Y (Homo sapiens, UniProt Q9UBR2).
T1 construct: source of the purified preparation not in excerpts; cDNA from human HS683 cells, expressed in 293 cells
Kind of data set: Inhibition of Cathepsin Y carboxypeptidase activity (o-phthalaldehyde fluorescence, acetylated EGYYGNYGV substrate). The note with it: pH 4.5. The procedure:
(§1) This is accomplished by reacting with the reagent o-phthalaldehyde in an alkaline solution in the presence of 2-mercaptoethanol (Simons, et al., JACS, 98:7098-7099, (1976)).
(§2) A standard curve was constructed by incubating varying concentrations of valine (0-20 μM) in 0.25M sodium borate, pH 10, containing 0.05% 2-mercaptoethanol and 60 μg/mL o-phthalaldehyde, in individual wells of a 96 well microtiter plate. The resulting fluorescence is read in a plate reading Cytofluor (ex 340, em 460 nm). There is a linear increase in the signal proportional to the amount of free valine present (FIG. 7).
(§3) In order to determine the pH optimum of the enzyme, reaction mixtures were set up with enzyme and substrate (0.2 mg/mL) in a total reaction volume of 0.1 mL) in individual wells of 96-well microtiter plates, in 20 mM sodium acetate buffers at different pHs, with 0.1% 2-mercaptoethanol present. Control wells were set identically except for the […] of enzyme. At various time-points after incubation at room temperature, the reactions were quenched by the addition of an equal volume of 0.45M sodium borate, pH 10, with 0.25 mg/mL o-phthalaldehyde, and the fluorescence measured. In the absence of added enzyme, no measurable fluorescence is generated above background, even with extended incubations. In the presence of enzyme, there is a time-dependent increase in fluorescence.
Using this assay at pH 4.5, the ability of a number of compounds to inhibit the activity of Cathepsin Y was tested, by adding the desired concentration of the inhibitor in the incubation mixture along with enzyme and substrate, and measuring the decrease in fluorescence (if any) relative to enzyme control.

Data set [2] deals with T1, Cathepsin Y. The data set is described as follows: Cleavage of synthetic oligopeptides by purified Cathepsin Y (RP-HPLC, amino-acid analysis). The note with it: for cleavage product(s) of parent oligopeptide with Cathepsin Y: 50 μg/mL peptide, pH 4.5 or 5.5, 1 hour, 37° C. How it is done: In an effort to identify whether the enzyme has other proteolytic activity, a number of randomly selected synthetic oligopeptides were incubated with purified Cathepsin Y at pH 5.5 or 4.5. Specifically, purified Cathepsin Y was incubated with the selected synthetic oligopeptides (50 μg/mL) at either pH 4.5 or pH 5.5, for 1 hour at 37° C. Samples were quenched by the addition of trifluoroacetic acid to 1% final concentration, then analyzed by reverse phase HPLC on a Vydac C18 column, using a gradient of increasing acetonitrile in 0.1% trifluoroacetic acid. Individual peaks (parent and new product(s)) were collected, then analyzed by acid hydrolysis followed by amino-acid analysis.

The nature of data set [3]: pH optimum of Cathepsin Y carboxypeptidase activity. Particulars: 20 mM sodium acetate buffers, room temperature. The procedure:
as §1, §2, §3

The next data set relates to APP. The data set is described as follows: Proteolytic activity of purified Cathepsin Y on APP preparations. The note with it: purified recombinant APP constructs and membrane-bound full-length APP.
A short description of data set [4]: Activity of Cathepsin Y on synthetic substrates used for assaying Cathepsin B, L or S.
Where [5] appears, read: synthetic oligopeptides, pH 4.5 or 5.5.

T1 sequence (Q9UBR2 62-303): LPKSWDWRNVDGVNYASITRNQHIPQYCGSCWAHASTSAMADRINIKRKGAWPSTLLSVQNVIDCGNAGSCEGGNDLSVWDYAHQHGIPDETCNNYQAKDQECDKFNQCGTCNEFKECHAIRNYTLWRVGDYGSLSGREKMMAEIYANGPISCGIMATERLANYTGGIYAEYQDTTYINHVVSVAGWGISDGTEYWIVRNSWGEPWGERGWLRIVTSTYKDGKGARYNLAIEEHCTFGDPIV

On to `CC(C)[C@@H](NC(=O)OCc1ccccc1)C(=O)N[C@H](C=O)Cc1ccccc1` [Example 24] (Cbz-[dV]-Phe-aldehyde), for which the “inhibition of Cathepsin Y activity” value against Cathepsin Y [1] is “indicated inhibition of Cathepsin Y activity”.

`CC(C)[C@H](NC(=O)OCc1ccccc1)C(=O)N[C@H](C=O)Cc1ccccc1` [Example 15] (Cbz-Val-Phe-aldehyde): the “inhibition of Cathepsin Y activity” value at Cathepsin Y [1] is recorded as “indicated inhibition of Cathepsin Y activity”.

On to FFDEPNPGVTIY, for which the “cleavage product(s) of parent oligopeptide with Cathepsin Y” value (“cleavage product(s)” for short) with Cathepsin Y [2] is “FFDEPNPGVT”.

`O=C[C@H](Cc1ccccc1)NC(=O)CCCCc1ccccc1` [Example 4]: the “inhibition of Cathepsin Y activity” value against Cathepsin Y [1] is recorded as “indicated inhibition of Cathepsin Y activity”.

Consider `O=C[C@H](Cc1ccc(OCc2ccccc2)cc1)NC(=O)C(c1ccccc1)c1ccccc1` [Example 45], for which, on Cathepsin Y [1], the “inhibition of Cathepsin Y activity” value is reported as “indicated inhibition of Cathepsin Y activity”.

On to EGYYGNYGVYA, for which the “cleavage product(s)” value with Cathepsin Y [2] is reported as “EGYYGNYGVY; also recorded: EGYYGNYGV”.

Turning to `O=C[C@H](Cc1ccccc1)NC(=O)Cc1ccccc1` [Example 59], the “inhibition of Cathepsin Y activity” value on Cathepsin Y [1] is on record as “indicated inhibition of Cathepsin Y activity”.

Consider `O=C[C@H](Cc1ccccc1)NC(=O)C(=Cc1ccccc1)c1ccccc1` [Example 7], for which, on Cathepsin Y [1], the “inhibition of Cathepsin Y activity” value is “indicated inhibition of Cathepsin Y activity”.

`CSCC[C@@H](C=O)NC(=O)[C@@H](NC(=O)OCc1ccccc1)C(C)C` [Example 47] (Cbz-Val-Met-aldehyde): on Cathepsin Y [1], the “inhibition of Cathepsin Y activity” value is recorded as “indicated inhibition of Cathepsin Y activity”.

On to “Cathepsin Y: novel carboxypeptidase having a molecular weight of approximately 31 kD and the amino acid sequence set forth in SEQ ID No. 3”, for which, in the data set with Cathepsin Y [2] (setting [5]), the “endopeptidase or aminopeptidase activity” value is “No evidence of any endopeptidase or aminopeptidase activity” and the predominant proteolytic activity result is recorded as “carboxypeptidase activity”. Also, in data set [3], the “pH optimum for carboxypeptidase activity” value is recorded as “about 4.5”. Also, the “effect on various APP preparations” value with APP is “without effect”. In addition, the “activity with known synthetic substrates for Cathepsin B, L or S” value in data set [4] is on record as “No significant activity”.

Take EGYYGNYGV: the “cleavage product(s)” value with Cathepsin Y [2] is given as “EGYYGNYGV”.

For LFYDQSPTATI, the “cleavage product(s)” value in the data set with Cathepsin Y [2] is listed as “LFYDQSPTAT; also recorded: LFYDQSPTA; also recorded: LFYDQSPT”.

As to `O=C[C@H](Cc1ccccc1)NC(=O)C1c2ccccc2Oc2ccccc21` [Example 64], the “inhibition of Cathepsin Y activity” value at Cathepsin Y [1] was “indicated inhibition of Cathepsin Y activity”.

Regarding YKRDMVGGVVIA, the “cleavage product(s)” value with Cathepsin Y [2] is recorded as “YKRDMVGGVVI; also recorded: YKRDMVGGVV”.

On to `O=C[C@H](Cc1ccccc1)NC(=O)N(c1ccccc1)c1ccccc1` [Example 75], for which the “inhibition of Cathepsin Y activity” value against Cathepsin Y [1] is “indicated inhibition of Cathepsin Y activity”.

Consider `O=C[C@H](Cc1ccccc1)NC(=O)C(c1ccccc1)c1ccccc1` [Example 3], for which the “inhibition of Cathepsin Y activity” value on Cathepsin Y [1] was “indicated inhibition of Cathepsin Y activity”.
